{"source": "paper PMC7733796", "about": "(Proceedings of the National Academy of Sciences of the …, 2020)", "key": {"[1]": {"molecular_target": "T1, CXCR4 (Homo sapiens, UniProt P61073)", "T1 sequence (P61073 whole entry)": "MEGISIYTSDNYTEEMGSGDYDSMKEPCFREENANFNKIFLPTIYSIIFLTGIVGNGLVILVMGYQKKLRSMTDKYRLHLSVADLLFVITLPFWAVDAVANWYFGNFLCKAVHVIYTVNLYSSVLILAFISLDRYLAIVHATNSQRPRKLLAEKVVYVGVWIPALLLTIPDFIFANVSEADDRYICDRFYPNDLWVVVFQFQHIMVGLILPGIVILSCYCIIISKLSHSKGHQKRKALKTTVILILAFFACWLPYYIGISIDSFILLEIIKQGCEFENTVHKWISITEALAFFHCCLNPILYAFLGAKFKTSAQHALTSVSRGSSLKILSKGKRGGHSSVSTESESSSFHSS", "conditions": "hNSCs preincubated with 10 µM, osmotic pump 24-72 h, analysis 3 d posttransplant"}, "[2]": {"test_system": "ERK1/2, p38-MAPK, IκBα", "assay": "Western blot of phosphorylation downstream of CXCR4 in hNSCs", "type": "cell-based, human", "conditions": "hNSC lysates"}, "[3]": {"test_system": "Sandhoff disease (Hexβ−/−) mice", "assay": "Sandhoff disease", "type": "in vivo, mouse"}, "[4]": {"test_system": "hNSCs", "assay": "CyQuant proliferation assay, hNSCs", "type": "cell-based, human", "conditions": "SDV1a 10 nM, 72 h"}, "[5]": {"test_system": "hNSCs", "assay": "Boyden chamber transmigration assay, hNSCs", "type": "cell-based, human", "conditions": "hNSCs 1x10^5, 8-µm fibronectin-coated transwell, 5 h"}, "[6]": {"molecular_target": "T1, CXCR4", "assay": "Single-cell [Ca2+]i", "type": "cell-based", "conditions": "SDV1a 10 µM; at least 11 cells per condition"}, "[7]": {"assay": "Persistence and pharmacokinetics in mouse brain", "type": "in vivo"}, "[8]": {"molecular_target": "T1, CXCR4", "assay": "Receptor endocytosis analysis", "type": "cell-based", "conditions": "hNSCs, ligand 4 µg/mL, 37°C"}, "[9]": {"test_system": "hNSCs", "assay": "Microarray gene expression and gene ontology analysis of hNSCs", "type": "cell-based, human", "conditions": "hNSCs vs non-treated control"}, "[10]": {"test_system": "activated M1 microglia", "assay": "Microgliosis and safety after intracerebral injection in adult mice", "type": "in vivo, mouse", "conditions": "for CD11b+ cells (activated M1 microglia): adult mouse brain after injection, n = 3 mice per condition"}, "[11]": {"molecular_target": "T1, CXCR4", "assay": "Ca2+ mobilization", "type": "cell-based", "conditions": "Sup-T1 cells; for Ca2+ efflux (signaling) with increasing concentrations: Fura-2/AM ratiometric, plate reader, DV1 tested up to 40 µM"}, "[12]": {"test_system": "transplanted hNSCs", "type": "in vivo, mouse", "conditions": "adult C57BL/6J mice, 2 µl injected into cortex or hippocampus, n=3 per group"}, "[13]": {"test_system": "Sup-T1 cells", "assay": "Boyden chamber chemotaxis assay, Sup-T1 cells", "type": "cell-based, human", "conditions": "peptide in lower chamber at titrated concentrations, 37°C 2 h"}, "[14]": {"conditions": "4-mo-old mice, hiPSC-hNSCs + SDV1a, n = 6"}}, "note": "Non-standard residues stand in square brackets, D forms with d. Residues, ends and D or L forms follow the SMILES beside them.", "data": [{"compound": "c1cc(CN2CCCNCCNCCCNCC2)ccc1CN1CCCNCCNCCCNCC1", "note": "[AMD3100]", "values": [{"measurement": "Effect of CXCR4 inhibition on hNSC migration to SDV1a", "setting": "[1]", "result": "abrogated"}]}, {"compound": "CC(C)C[C@H](NC(=O)[C@H](CO)NC(=O)[C@@H](NC(=O)[C@@H]1CCCN1C(=O)[C@@H](N)CCCCN)C(C)C)C(=O)N[C@@H](CO)C(=O)N[C@@H](Cc1ccc(O)cc1)C(=O)N[C@@H](CCCNC(=N)N)C(=O)NCC(=O)NCC(=O)N[C@H](CC(C)C)C(=O)NCC(=O)N[C@H](C)C(=O)N[C@H](CO)C(=O)N[C@H](Cc1c[nH]c2ccccc12)C(=O)N[C@H](Cc1c[nH]cn1)C(=O)N[C@H](CCCNC(=N)N)C(=O)N1CCC[C@@H]1C(=O)N[C@H](CC(=O)O)C(=O)N[C@H](CCCCN)C(=O)N[C@H](CS)C(=O)N[C@H](CS)C(=O)N[C@H](CC(C)C)C(=O)NCC(=O)N[C@H](Cc1ccc(O)cc1)C(=O)N[C@H](CCC(N)=O)C(=O)N[C@H](CCCCN)C(=O)N[C@H](CCCNC(=N)N)C(=O)N1CCC[C@@H]1C(=O)N[C@H](CC(C)C)C(=O)N1CCC[C@@H]1C(N)=O", "note": "[SDV1a, L-(1∼8)-SDF1α-GG-D-(1∼21)-vMIP-II] (H-KPVSLSYRGG[dL]G[dA][dS][dW][dH][dR][dP][dD][dK][dC][dC][dL]G[dY][dQ][dK][dR][dP][dL][dP]-NH2; N-terminus assumed)", "values": [{"measurement": "Phosphorylation of p38-MAPK (Thr180/Tyr182) and IκBα (Ser-32/36)", "setting": "[2]", "result": "phosphorylated"}, {"measurement": "GM2 ganglioside storage in cortex", "setting": "[3]; [14]", "result": "little GM2 accumulation occurred"}, {"measurement": "Microgliosis (Iba1) in cortex where donor cells engrafted", "setting": "[3]; [14]", "result": "scant"}, {"measurement": "Hex enzyme levels in CNS parenchyma", "setting": "[3]; hiPSC-hNSC+SDV1a, regions where donor cells were attracted", "result": "raised beyond the critical 3 to 5% therapeutic threshold"}, {"measurement": "Increase in total DNA content compared to untreated controls", "setting": "[4]", "result": 10, "unit": "%"}, {"measurement": "Concentration at which hNSC chemotaxis peaks (bell-shaped dose-response)", "setting": "[5]", "result": 5, "unit": "nM"}, {"measurement": "Change of [Ca2+]i in single hNSCs", "setting": "[6]", "result": "increased [Ca^2+]i"}, {"measurement": "Persistence in brain after injection", "setting": "[7]; FITC- or biotin-tagged SDV1a, adult mouse brain", "result": 3, "unit": "wk"}, {"measurement": "Time to dissemination throughout the regions", "setting": "[7]; postinjection, C57BL/6J mice, HPLC-MS/MS", "result": "≤ 30", "unit": "min"}, {"measurement": "Time to down-regulation of CXCR4 surface expression", "setting": "[8]", "result": 90, "unit": "min"}, {"measurement": "Gene ontology profile induced in hNSCs", "setting": "[9]", "result": "primarily induced genes associated with developmental, homeostatic, and stem cell-related functions"}, {"measurement": "CD11b+ cells (activated M1 microglia)", "setting": "[10]", "result": "1.1 ± 1.0", "unit": "per 0.4 mm^2"}, {"measurement": "Systemic or CNS toxicity, behavior", "setting": "[10]; mice after intracerebral injection", "result": "no evidence of systemic or CNS toxicity or altered behavior"}, {"measurement": "Signaling intensity (Ca2+ release) relative to CXCL12/SDF1α", "setting": "[11]; Fura-2/AM", "result": "an order-of-magnitude less"}]}, {"compound": "C-X-C motif chemokine ligand-12 [CXCL12]", "values": [{"measurement": "Concentration at which hNSC chemotaxis peaks (bell-shaped dose-response)", "setting": "[5]", "result": 0.5, "unit": "nM"}, {"measurement": "Time by which undetectable in brain after administration", "setting": "[7]; similarly labeled recombinant CXCL12, adult mouse brain", "result": "≤ 2", "unit": "days"}, {"measurement": "Attraction of hNSCs transplanted into the contralateral hippocampus", "setting": "[12]", "result": "drew no hNSCs"}, {"measurement": "Time after which cell surface CXCR4 starts to rebound", "setting": "[8]", "result": "> 45", "unit": "min"}, {"measurement": "Time to down-regulation of CXCR4 surface expression", "setting": "[8]", "result": "≤ 10", "unit": "min"}, {"measurement": "Gene ontology profile induced in hNSCs", "setting": "[9]", "result": "up-regulation of inflammatory and immune-related processes"}, {"measurement": "Persistence of microgliosis postinjection", "setting": "[10]; adult mouse brain", "result": 2, "unit": "wk"}, {"measurement": "CD11b+ cells (activated M1 microglia)", "setting": "[10]", "result": "11.7 ± 2.8", "unit": "per 0.4 mm^2"}, {"measurement": "Ca2+ efflux (signaling) with increasing concentrations", "setting": "[11]", "result": "produced the most intense signaling"}]}, {"compound": "D-(1~21)-vMIP-II [DV1]", "values": [{"measurement": "Chemotaxis of Sup-T1 cells (upper to lower chamber)", "setting": "[13]", "result": "elicited no chemotaxis"}, {"measurement": "Ca2+ efflux (signaling) with increasing concentrations", "setting": "[11]", "result": "evoked no signaling"}]}, {"compound": "L-(1~8)-SDF1a (KPVSLSYR; UniProt P48061 22-29, looked up, fragment) [S1]", "values": [{"measurement": "Chemotaxis of Sup-T1 cells (upper to lower chamber)", "setting": "[13]", "result": "elicited no chemotaxis"}]}]}
